Assay results published in publication PMC5770468, “Cardiac glycoside/aglycones inhibit HIV-1 gene expression by a mechanism requiring MEK1/2-ERK1/2 signaling” (Scientific Reports, 2018).

Test system: HIV-1 Tat (p16/p14)
Test: Immunoblot of HIV-1 Tat (p16/p14) in HeLa rtTA-HIV-ΔMls cells
Format: cell-based
Details: ~IC80 of CS, relative to DMSO (+Dox)
Procedure: Figure 3 CSs reduce expression of essential HIV-1 structural and regulatory proteins. HeLa rtTA-HIV-ΔMls cells were treated with ~IC80s of CSs (per Methods), 100 nM of RIDK-21 or -27, or DMSO for 4 h prior to Dox induction for 20 h as indicated. Cell extracts were analyzed by immunoblot of (a) HIV-1 structural proteins: Env (gp160/gp120) and Gag (p41/p24), and (b–d) viral regulatory factors: Rev (p19, b) and Tat (p16/p14, c,d). (d) Graph quantitating Tat expression. Results from (a–d) are from n ≥ 3, mean, s.e.m. […] (a and d) Lanes were cropped and assembled from the same blot per box from Supplementary Figure S4a,b and c, respectively.
To monitor HIV-1 gene expression or replication, Gag release into cell culture supernatants were assayed by ELISA using a p24^CA antigen capture assay kit (AIDS & Cancer Virus Program, NCI-Frederick, Frederick, MD USA). […] For analysis of HIV-1 and SR protein expression (and phosphorylation states with calf intestinal alkaline phosphatase treatments), cells were lysed and analyzed by western blot as previously outlined. […] Activation of MAPKs was determined by western blot quantitation and calculation of phospho/total protein levels. […] Stain-Free™ gels were casted and proteins were detected as described in 10% TGX-Stain-Free FastCast Acrylamide Kit from Bio-Rad (#161-0183). […]

C[C@]12CC[C@H](O)C[C@H]1CC[C@@H]1[C@@H]2CC[C@]2(C)[C@@H](C3=CC(=O)OC3)CC[C@]12O [Digitoxigenin]
p16 Tat expression: 57 % of control
